Laboratory results from US20240270723A1, “SUBSTITUTED HETEROCYCLIC COMPOUNDS” (BRISTOL-MYERS SQUIBB COMPANY, priority 2021, published 2024).

Legend:
[1] = test system: IFNα-induced pSTAT5 in human whole blood (CD3 positive population); experiment: IFNα-Induced STAT Phosphorylation in Human Whole Blood; format: cell-based; settings: 1 h incubation with compound, 1000 U/mL IFNα A/D for 15 min, pSTAT5 in CD3 positive cells, read-out: Human Whole blood IFNa pSTAT5 IC50
Method: IFNα-Induced STAT Phosphorylation in Human Whole Blood
After an hour long incubation with compound, human whole blood (drawn with ACD-A as anticoagulant) was stimulated with 1000 U/mL recombinant human IFNα A/D (R&D Systems 11200-2) for 15 min. The stimulation was stopped by adding Fix/Lyse buffer (BD 558049). Cells were stained with a CD3 FITC antibody (BD 555916), washed, and permeabilized on ice using Perm III buffer (BD 558050). Cells were then stained with an Alexa-Fluor 647 pSTAT5 (pY694) antibody (BD 612599) for 60 min prior to analysis on the iQue Plus. The amount of pSTAT5 expression was quantitated by median fluorescence intensity after gating on the CD3 positive population.

in vitro = settings: human, Caco-2, pH 7.4

| IC50 [1] [nM] | Papp A→B at 2 h, 3 μM (in vitro) [×10⁻⁶ cm/s] | efflux ratio at 2 h, 3 μM (in vitro) | Compound |
| --- | --- | --- | --- |
| 320 | 26.1 | 1.8 | [2H]C([2H])([2H])NC(=O)c1nnc(NC(=O)C2CC2)cc1Nc1ncnc(-c2cnn(C)n2)c1OC [Example 1, 6-(cyclopropanecarboxamido)-4-((5-methoxy-6-(2-methyl-2H-1,2,3-triazol-4-yl)pyrimidin-4-yl)amino)-N-(methyl-d3)pyridazine-3-carboxamide] |
| 190 | 9.8 | 3.3 | [2H]C([2H])([2H])NC(=O)c1nnc(NC(=O)C2CC2)cc1Nc1ccnc(-c2cnn(C3CC3)n2)c1OC [Example 3, 6-(cyclopropanecarboxamido)-4-((2-(2-cyclopropyl-2H-1,2,3-triazol-4-yl)-3-methoxypyridin-4-yl)amino)-N-(methyl-d3)pyridazine-3-carboxamide] |
| 50 | 12.2 | 4.9 | [2H]C([2H])([2H])NC(=O)c1nnc(NC(=O)C2CC2)cc1Nc1ccnc(-c2cnn(C)n2)c1OC [Example 2, 6-(cyclopropanecarboxamido)-4-((3-methoxy-2-(2-methyl-2H-1,2,3-triazol-4-yl)pyridin-4-yl)amino)-N-(methyl-d3)pyridazine-3-carboxamide] |
| 1090 | 34.2 | 1.1 | [2H]C([2H])([2H])NC(=O)c1nnc(NC(=O)C2CC2)cc1Nc1cncc(-c2cnn(C3CC3)n2)c1OC [Example 5, 6-(cyclopropanecarboxamido)-4-((5-(2-cyclopropyl-2H-1,2,3-triazol-4-yl)-4-methoxypyridin-3-yl)amino)-N-(methyl-d3)pyridazine-3-carboxamide] |
| 350 | 13.8 | 2.8 | [2H]C([2H])([2H])NC(=O)c1nnc(NC(=O)C2CC2)cc1Nc1ccnc(-c2cnn(C3CC3)c2)c1OC [Example 4, 6-(cyclopropanecarboxamido)-4-((2-(1-cyclopropyl-1H-pyrazol-4-yl)-3-methoxypyridin-4-yl)amino)-N-(methyl-d3)pyridazine-3-carboxamide] |
